Measurements: US20140335050A1, “METHODS, COMPOSITIONS, AND KITS FOR THE TREATMENT OF CANCER” (The General Hospital Corporation, priority 2011, published 2014)

How the values were obtained:
[1] = test system: U-118 MG glioma cell line; experiment: Antibody staining and flow cytometry (intracellular gp100; surface MHC Class I/II); format: cell-based, human; settings: U-118 MG; 3 days; IFN-beta 5000 Units/ml, 17-AEP 1.0, PU-H71 0.3, CCT018159 10.0 μg/ml
Protocol: (§1) Cells were fixed with 1% formaldehyde, permeabilized with 0.1% saponin, stained with monoclonal antibodies to melanocyte antigens. Antibodies were obtained with specificity for: MART-1 from Vector Labs (Burlingame, Calif.); gp100 HMB45 from DakoCytomation (Carpinteria, Calif.) and then visualized with goat anti-mouse FITC-conjugated secondary antibody from Invitrogen (Fredrick, Md.). The level of EGFP was determined by flow cytometry of unfixed cells that were washed and resuspended in 1×PBS.
(§2) Cells were plated at a density of 1×10^5 in 1 ml of medium in a 24-well plate and cultured for varying times as indicated in results. […] After incubation, cells were collected by trypsinization and then evaluated by flow cytometry.
(§3) Intracellular staining and flow cytometric analyses of cytoplasmic Melan-A/MART-1, and gp100 expression were performed as described previously. Cells were fixed with 1% formaldehyde, permeabilized with 0.1% saponin, stained with monoclonal antibodies to melanocyte antigens. Antibodies were obtained with specificity for: Melan-A/MART-1 from Vector Labs (Burlingame, Calif.); gp100/HMB45 from DakoCytomation (Carpinteria, Calif.) and then visualized with goat anti-mouse FITC-conjugated secondary antibody from Invitrogen (Frederick, Md.). The level of EGFP was determined by flow cytometry of unfixed cells washed and resuspended in 1×PBS. Surface staining of MHC Class I was carried out using the antibody W6/32 on cells harvested with Cell Stripper from MediaTech Inc. (Manassas, Va.) and carried out on ice.
(§4) Cell were seeded at 1×10^6 cells in a T25 flask with 10 ml of media for the 4 day IFN-beta pre-treatments. Cells were then harvested and plated in 24 well plate at 1×10^5 cells per well in 1 ml of media for 3 day treatments.
(§5) For surface staining of HLA Class I and II antigens, cells were harvested using CellStripper™ from Mediatech (Manassas, Va.). All staining steps were performed on ice. Following a first incubation with antibody to Class I (W6/32) or Class II (L243) for 30 minutes. Stained cells were washed twice with cold PBS and then stained with a goat anti-mouse FITC secondary antibody to allow for quantitative analysis by flow cytometry. For evaluation of cytoplasmic antigens, including Melan-A/MART-1 and gp100, cells were first fixed in paraformaldehyde and permeabilized with saponin as previously described. Staining for cytoplasmic antigens was carried out at room temperature (22° C.).

MU89 melanoma cell line = experiment: Antibody staining and flow cytometry (intracellular Melan-A/MART-1, gp100, TRP-2; surface MHC Class I/II); format: cell-based, human
Protocol: as §1, §2, §3, §4, §5

[2] = test system: MALME-3M melanoma cell line; experiment: Antibody staining and flow cytometry (intracellular Melan-A/MART-1, gp100, TRP-2; surface MHC Class I); format: cell-based, human; settings: for MHC Class I, geometric mean of surface staining (W6/32): MALME, three days, IFN-β 5000 Units/ml
Protocol: as §1, §2, §3

[3] = test system: B16 murine melanoma cell line; experiment: Antibody staining and flow cytometry (intracellular gp100, TRP-2; surface Class I with H2kb antibody); format: cell-based, mouse; settings: 3 days, 17-AEP 0.5, PU-H71 0.15, CCT018159 2.5 μg/ml
Text: To further evaluate enhancement of immune recognition of cancer cells by inhibition of Hsp90 function, it was shown that a total of twelve different Hsp90 inhibitors were active in several molecular and cellular assays on a series of cell lines, including eleven human melanomas, the murine B16 melanoma, and two human gliomas. […] The melanomas all express varying levels of differentiation antigens Melan-A/MART-1, gp100 and TRP-2, as well as the MHC-Class I antigen (as evidenced by W6/32 antibody staining) that is required for T cell recognition of the tumor cells. Each of these antigens is enhanced by all of the Hsp90 inhibitors. […] Similar to the human counterparts, the B16 mouse tumor also can be induced to express enhanced antigen levels upon 3-day exposure to each of the Hsp90 inhibitors (Table 16). The mouse H-2 Class I antigen is likewise induced by the Hsp90 inhibitors.
General culture conditions for cell propagation and the origins of most of the melanoma cell lines have been previously described. Melanoma cells were cultured in DMEM with 10% FBS. The glioma cell lines U87 MG and U118 MG were obtained from the American Type Culture Collection (ATCC). The B16 murine melanoma cell line was provided by Dr. Andrew Hurwitz and has been previously described. The T cell receptor (TCR)-negative Jurkat T cell line derivative J.RT3-T3.5 was obtained from ATCC. The construction of the J.RT3-T3.5 cell line expressing a Melan-A/MART-1 specific TCR has been described previously. T cells were cultured in RPMI with 10% FBS. IFN-beta-1a (Avonex) was obtained from Biogen-Idec (Cambridge, Mass.) and reconstituted according to the manufacturer's recommendations. The Hsp90 inhibitor radicicol was purchased from A.G. Scientific (San Diego, Calif.). Novobiocin was ordered from BioMol (Plymouth Meeting, Pa.). 17-DMAG was obtained from LC laboratories (Woburn, Mass.). 17-AEP-AP was purchased from InVivoGen (San Diego, Calif.). […] Gedunin, CCT018159, and celastrol were purchased from Tocris (Ellisville, Mo.). Selleck Chemicals (Houston, Tex.) provided NVP-AUY922 and BIIB021.
Cells were plated at a density of 1×10^5 in 1 ml of medium in a 24-well plate and cultured for varying times as indicated in results. Typically, 3 days of culture in the presence of Hsp90 inhibitors was optimal for the functional studies performed. After incubation, cells were collected by trypsinization and then evaluated by flow cytometry.
as §3

[4] = MU89, 3 days, IFN-beta 5000 Units/ml, 17-AEP 1.0, PU-H71 0.3, CCT018159 10.0 μg/ml
[5] = MU89, 4 day IFN-β pre-treatment (5000 Units/ml), then 3 days with fresh IFN-β and the labelled HSP90 inhibitor (label IFN-β: no inhibitor), 17-AEP 1, PU-H71 0.3, CCT018159 10 mg/ml
[6] = MU89, 4 day IFN-β pre-treatment (5000 Units/ml), then 3 days without IFN-β with the labelled HSP90 inhibitor (label IFN-β: no inhibitor), 17-AEP 1, PU-H71 0.3, CCT018159 10 mg/ml
[7] = MU89, single agent for 3 days, no IFN-β pre-treatment, IFN-β 5000 Units/ml
[8] = MU89, three days, IFN-β 5000 Units/ml
[9] = MALME-3M, 3 days, IFN-beta 5000 Units/ml, 17-AEP 1.0, PU-H71 0.3, CCT018159 10.0 μg/ml
[10] = MU89 (BRAF M/WT, NRAS WT), 3 days, 17-AEP 0.50, CCT018159 10.00, PU-H71 0.30 μg/ml
[11] = MALME-3M (BRAF M/WT, NRAS WT), 3 days, 17-AEP 0.25, CCT018159 5.00, PU-H71 0.30 μg/ml

SMILES	Class I, geometric mean of surface staining (W6/32) [1]	gp100, geometric mean of intracellular staining [1]	Class I, geometric mean of surface staining (W6/32) (MU89 melanoma cell line; [4])	MART-1, geometric mean of intracellular staining (MU89 melanoma cell line; [4])	TRP-2, geometric mean of intracellular staining (MU89 melanoma cell line; [4])	gp100, geometric mean of intracellular staining (MU89 melanoma cell line; [4])	MHC Class I, geometric mean of surface staining (W6/32) (MU89 melanoma cell line; [5])	MHC Class I, geometric mean of surface staining (W6/32) (MU89 melanoma cell line; [6])	MHC Class I, geometric mean of surface staining (W6/32) (MU89 melanoma cell line; [7])	MHC Class I, geometric mean of surface staining (W6/32) (MU89 melanoma cell line; [8])	Class I, geometric mean of surface staining (W6/32) [2, 9]	MART-1, geometric mean of intracellular staining [2, 9]	TRP-2, geometric mean of intracellular staining [2, 9]	gp100, geometric mean of intracellular staining [2, 9]	MHC Class I, geometric mean of surface staining (W6/32) [2]	Class I, geometric mean of surface staining (H2kb) [3]	TRP-2, geometric mean of intracellular staining [3]	gp100, geometric mean of intracellular staining [3]	other results
CO[C@H]1/C=C\C=C(/C)C(=O)NC2=CC(=O)C(NCCN3CCCC3)=C(C[C@@H](C)C[C@H](OC)[C@H](O)[C@@H](C)/C=C(\C)[C@@H]1OC(N)=O)C2=O [17-AEP]	117	61	54	130	144	342	227	86	84	54	105	205	256	839	105	13	288	420	
CCc1cc(-c2n[nH]c(C)c2-c2ccc3c(c2)OCCO3)c(O)cc1O [CCT018159]	101	83	75	99	252	273	281	232	73	75	72	291	222	823	72	16	364	414	Class I, fold increase relative to untreated control [1]: 2.0 fold; gp100, fold increase relative to untreated control [1]: 1.4 fold; HMB45, level of induction relative to untreated control cells (MU89 melanoma cell line; [10]): 3.92; MART-1, level of induction relative to untreated control cells (MU89 melanoma cell line; [10]): 3.22; Class I, fold increase relative to untreated control (MU89 melanoma cell line; [4]): 4.2 fold; MART-1, fold increase relative to untreated control (MU89 melanoma cell line; [4]): 3.0 fold; TRP-2, fold increase relative to untreated control (MU89 melanoma cell line; [4]): 2.7 fold; gp100, fold increase relative to untreated control (MU89 melanoma cell line; [4]): 2.2 fold; HMB45, level of induction relative to untreated control cells [2, 11]: 3.63; MART-1, level of induction relative to untreated control cells [2, 11]: 2.48; Class I, fold increase relative to untreated control [2, 9]: 1.6 fold; MART-1, fold increase relative to untreated control [2, 9]: 2.5 fold; TRP-2, fold increase relative to untreated control [2, 9]: 2.1 fold; gp100, fold increase relative to untreated control [2, 9]: 3.6 fold; Class I, fold increase relative to untreated control [3]: 6.8 fold; TRP-2, fold increase relative to untreated control [3]: 3.9 fold; gp100, fold increase relative to untreated control [3]: 5.2 fold
